Experimental data taken from US20210018504A1, “SHON AS A PROGNOSTIC BIOMARKER FOR CANCER AND AS A PREDICTOR OF RESPONSE TO ENDOCRINE THERAPY” (priority 2012, published 2021).

Legend:
MCF7-SHON cells = test: Total cell number assays in MCF7-Vec and MCF7-SHON stable cells; format: cell-based, human
Method: (§1) FIGS. 12A-C. SHON is an estrogen inducible gene. (A) RT-PCR. MCF-7 cells were cultured for 24 h in RPMI media containing 10% foetal bovine serum (FBS). Prior to 17β-estradiol (E2) treatment, cells were further cultured for 72 h in phenol red-free medium containing 10% charcoal stripped-FBS. Cells were then treated with 10 nM of E2. Total RNAs were isolated from the cells at indicated time points and the expression of SHON mRNA was determined by One-Step RT-PCR kits (Qiagen) with the SHON-specific primer pairs of SHONc5 and SHONc3 (Table 1). β-ACTIN was included as the RNA input control using forward primer: 5′-ATCATATCGCCGCGCTCG-3′ (SEQ ID NO: 9) and reverse primer: 5′-CGCTCGGTGAGGATCTTCA-3′ (SEQ ID NO: 10). The bp sizes of amplified products are shown on the right. (B) MCF7-Vec and MCF7-SHON cells were treated with DMSO vehicle (−) or 10 nM of E2 (+) for 72 h in phenol red-free medium containing 10% charcoal stripped-FBS. The expression of SHON in whole cell lysates was determined by Western blot with the rabbit polyclonal SHONα antibody. Molecular weights of detected protein bands are shown on the right. (C) Total cell number assays. MCF7-Vec and MCF7-SHON stable cells were seeded in phenol-red free RPMI media with 10% charcoal stripped FBS. […] The cell number was determined at the days indicated. […] The cell number was determined at the indicated days. **, P<0.01; ***, P<0.001. […]

SHON = SHON expression in MCF-7 cells after 17β-estradiol treatment (RT-PCR, Western blot); format: cell-based, human
Method: as §1

breast cancer = conditions: adjuvant therapy for 5 years, cited from earlier work

C[C@]12CC[C@@H]3c4ccc(O)cc4CC[C@H]3[C@@H]1CC[C@@H]2O [E2, 17β-estradiol]
cell number (MCF7-SHON cells; 10 nM E2, MCF7-SHON compared with MCF-Vec cells): synergistic increase in cell number | SHON mRNA levels (SHON; 10 nM E2, MCF-7 cells, RT-PCR): increase in SHON mRNA levels in a time dependent manner | SHON protein expression (SHON; 10 nM E2 for 72 h, MCF7-Vec and MCF7-SHON cells, Western blot): increased

C[C@]12CC[C@@H]3c4ccc(O)cc4C[C@@H](CCCCCCCCC[S+]([O-])CCCC(F)(F)C(F)(F)F)[C@H]3[C@@H]1CC[C@@H]2O (stereo partly drawn) [ICI 182780]
SHON-stimulated growth (MCF7-SHON cells; 100 nM ICI, ER+ MCF-7 cells): partially attenuated SHON-stimulated growth advantages

CC/C(=C(\c1ccccc1)c1ccc(OCCN(C)C)cc1)c1ccccc1 [tamoxifen]
absolute reduction in mortality (breast cancer; at 15 years): 9.2% | reduction in the annual breast cancer death rate (breast cancer): 34%
